Test results: ChEMBL document CHEMBL2331488, “Biotransformation of LASSBio-579 and pharmacological evaluation of p-hydroxylated metabolite a N-phenylpiperazine antipsychotic lead compound” (Eur J Med Chem, 2013); call rule not given here

Tests used:
D(2) dopamine receptor = D(2) dopamine receptor (Rattus norvegicus, UniProt P61169); test: Displacement of [3H]-YM-09151-2 from D2 dopamine receptor in Wistar rat brain striatal membrane after 60 mins by liquid scintillation counting; assay type: cell membranes, Striatum
D(2) dopamine receptor, sequence (P61169 whole entry): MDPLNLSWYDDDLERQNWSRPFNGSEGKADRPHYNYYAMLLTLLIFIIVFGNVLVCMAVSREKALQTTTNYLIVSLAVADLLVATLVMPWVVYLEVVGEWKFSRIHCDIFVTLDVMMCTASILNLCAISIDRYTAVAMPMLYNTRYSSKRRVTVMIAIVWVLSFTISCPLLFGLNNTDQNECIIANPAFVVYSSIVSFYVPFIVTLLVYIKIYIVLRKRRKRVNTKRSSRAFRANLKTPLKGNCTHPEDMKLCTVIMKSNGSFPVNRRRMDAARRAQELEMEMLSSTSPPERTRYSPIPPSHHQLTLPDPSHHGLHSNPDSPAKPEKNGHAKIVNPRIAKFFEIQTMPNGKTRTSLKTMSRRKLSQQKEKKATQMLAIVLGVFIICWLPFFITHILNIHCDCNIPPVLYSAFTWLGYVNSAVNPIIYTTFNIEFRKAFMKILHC

[1] = target: Muscarinic acetylcholine receptor; test: Displacement of [3H]-QNB from muscarinic receptor in Wistar rat brain membrane after 60 mins by liquid scintillation counting; assay type: cell membranes
[2] = target: T1, Alpha-2A adrenergic receptor (Rattus norvegicus, UniProt P22909); test: Displacement of [3H]-RX821002 from alpha2A adrenergic receptor in Wistar rat cortical membrane after 45 mins by liquid scintillation counting; assay type: cell membranes
T1 sequence (P22909 whole entry): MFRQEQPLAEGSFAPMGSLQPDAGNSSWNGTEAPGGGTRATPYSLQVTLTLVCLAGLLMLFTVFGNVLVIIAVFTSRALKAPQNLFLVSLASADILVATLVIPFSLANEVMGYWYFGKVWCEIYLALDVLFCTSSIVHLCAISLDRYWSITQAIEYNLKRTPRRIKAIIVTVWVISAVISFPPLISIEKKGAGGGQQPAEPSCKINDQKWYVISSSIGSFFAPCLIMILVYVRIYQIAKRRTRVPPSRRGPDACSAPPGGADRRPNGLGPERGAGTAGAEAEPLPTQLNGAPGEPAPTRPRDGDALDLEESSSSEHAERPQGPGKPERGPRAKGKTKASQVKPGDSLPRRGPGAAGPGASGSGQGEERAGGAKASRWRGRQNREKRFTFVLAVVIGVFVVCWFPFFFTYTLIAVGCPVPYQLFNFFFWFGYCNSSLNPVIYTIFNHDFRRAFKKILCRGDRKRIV

D(4) dopamine receptor = target: T2, D(4) dopamine receptor (Homo sapiens, UniProt P21917); test: Displacement of [3H]-YM-09151-2 from human D4 dopamine receptor after 120 mins by liquid scintillation counting
T2 sequence (P21917 whole entry): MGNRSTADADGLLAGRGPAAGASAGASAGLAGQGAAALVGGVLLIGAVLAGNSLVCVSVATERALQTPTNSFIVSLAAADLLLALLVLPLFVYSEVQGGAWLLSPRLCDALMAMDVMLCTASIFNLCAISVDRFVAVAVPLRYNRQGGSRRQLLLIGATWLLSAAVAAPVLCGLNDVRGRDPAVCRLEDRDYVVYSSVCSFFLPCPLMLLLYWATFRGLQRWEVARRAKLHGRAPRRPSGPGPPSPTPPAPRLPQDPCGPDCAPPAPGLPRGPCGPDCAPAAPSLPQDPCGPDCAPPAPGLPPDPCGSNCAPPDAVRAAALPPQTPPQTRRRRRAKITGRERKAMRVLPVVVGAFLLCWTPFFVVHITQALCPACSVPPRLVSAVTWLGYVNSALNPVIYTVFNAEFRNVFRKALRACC

[3] = target: T3, 5-hydroxytryptamine receptor 2C (Homo sapiens, UniProt P28335); test: Displacement of [3H]-mesulergine from human 5HT2C receptor after 60 mins by liquid scintillation counting
T3 sequence (P28335 whole entry): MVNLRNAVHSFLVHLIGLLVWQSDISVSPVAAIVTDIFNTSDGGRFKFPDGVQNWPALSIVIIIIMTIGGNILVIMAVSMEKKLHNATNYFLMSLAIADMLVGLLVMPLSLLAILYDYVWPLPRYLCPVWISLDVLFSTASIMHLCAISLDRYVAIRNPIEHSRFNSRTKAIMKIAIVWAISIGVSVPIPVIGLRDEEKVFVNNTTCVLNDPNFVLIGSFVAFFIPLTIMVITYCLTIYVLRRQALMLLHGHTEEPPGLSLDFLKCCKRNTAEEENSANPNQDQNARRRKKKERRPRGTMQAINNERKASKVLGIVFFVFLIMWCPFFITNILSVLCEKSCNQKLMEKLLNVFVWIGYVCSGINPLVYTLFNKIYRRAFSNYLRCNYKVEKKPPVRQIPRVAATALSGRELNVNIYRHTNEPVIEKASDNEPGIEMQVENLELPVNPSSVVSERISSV

[4] = target: T4, 5-hydroxytryptamine receptor 1A (Rattus norvegicus, UniProt P19327); test: Displacement of [3H]-OH-8-DPAT from 5HT1A receptor in Wistar rat hippocampal membrane after 15 mins by liquid scintillation counting; assay type: cell membranes, Hippocampus
T4 sequence (P19327 whole entry): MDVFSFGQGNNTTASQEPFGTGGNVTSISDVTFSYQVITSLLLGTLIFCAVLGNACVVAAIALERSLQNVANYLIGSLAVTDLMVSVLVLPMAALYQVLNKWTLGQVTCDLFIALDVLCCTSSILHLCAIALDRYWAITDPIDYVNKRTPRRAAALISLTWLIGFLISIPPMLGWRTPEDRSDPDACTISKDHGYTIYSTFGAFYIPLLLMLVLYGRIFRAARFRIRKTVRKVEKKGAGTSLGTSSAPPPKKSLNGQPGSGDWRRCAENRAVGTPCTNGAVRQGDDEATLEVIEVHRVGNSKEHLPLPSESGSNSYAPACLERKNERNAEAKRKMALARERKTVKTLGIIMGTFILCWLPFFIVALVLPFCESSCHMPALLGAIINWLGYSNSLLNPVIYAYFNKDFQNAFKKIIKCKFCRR

[5] = target: T5, Alpha-1B adrenergic receptor (Rattus norvegicus, UniProt P15823); test: Displacement of [3H]-prazosin from alpha1B adrenergic receptor in Wistar rat liver membrane after 45 mins by liquid scintillation counting; assay type: cell membranes
T5 sequence (P15823 whole entry): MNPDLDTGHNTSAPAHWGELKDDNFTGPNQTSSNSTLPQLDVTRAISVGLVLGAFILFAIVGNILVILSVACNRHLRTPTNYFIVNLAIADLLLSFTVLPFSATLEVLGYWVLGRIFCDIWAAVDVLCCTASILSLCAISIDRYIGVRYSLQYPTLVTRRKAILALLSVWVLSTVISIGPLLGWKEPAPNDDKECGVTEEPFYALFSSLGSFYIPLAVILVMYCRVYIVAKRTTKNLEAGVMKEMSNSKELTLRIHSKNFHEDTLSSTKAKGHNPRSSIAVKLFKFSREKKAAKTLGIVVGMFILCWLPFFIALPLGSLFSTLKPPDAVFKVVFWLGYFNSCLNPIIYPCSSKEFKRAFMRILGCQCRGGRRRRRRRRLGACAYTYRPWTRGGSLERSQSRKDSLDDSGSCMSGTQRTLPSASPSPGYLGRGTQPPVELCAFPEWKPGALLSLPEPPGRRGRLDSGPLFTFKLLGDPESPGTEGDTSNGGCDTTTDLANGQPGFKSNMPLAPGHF

[6] = target: 5-hydroxytryptamine receptor 2A (Rattus norvegicus, UniProt P14842); test: Displacement of [3H]-ketanserin from 5HT2A receptor in Wistar rat cortical membrane after 15 mins by liquid scintillation counting; assay type: cell membranes
5-hydroxytryptamine receptor 2A, sequence (P14842 whole entry): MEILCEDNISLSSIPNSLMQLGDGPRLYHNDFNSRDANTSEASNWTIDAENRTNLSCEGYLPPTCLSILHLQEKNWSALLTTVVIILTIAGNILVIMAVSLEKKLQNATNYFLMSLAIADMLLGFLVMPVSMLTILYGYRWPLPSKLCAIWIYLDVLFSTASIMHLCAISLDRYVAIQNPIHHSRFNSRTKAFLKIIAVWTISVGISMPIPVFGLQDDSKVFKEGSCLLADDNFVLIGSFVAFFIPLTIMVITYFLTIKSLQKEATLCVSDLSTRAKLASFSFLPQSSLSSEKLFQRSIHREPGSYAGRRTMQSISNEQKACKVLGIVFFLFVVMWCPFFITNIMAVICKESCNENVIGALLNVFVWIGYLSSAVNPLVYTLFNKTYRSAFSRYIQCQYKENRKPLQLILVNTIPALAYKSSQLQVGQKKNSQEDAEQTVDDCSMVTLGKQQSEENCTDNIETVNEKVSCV

Plasma = test: Drug metabolism in Wistar rat plasma assessed as p-hydroxylated metabolite level at 50 mg/kg, ip after 24 hrs; assay type: ADME, organism-based; parameters: dose 50 mg/kg, route intraperitoneal; conditions: in vivo

Row | Drug metabolism (Plasma) | SMILES | Ki (D(2) dopamine receptor) [µM] | Ki [1] [µM] | Ki [2] [µM] | Ki (D(4) dopamine receptor) [µM] | Ki [3] [µM] | Ki [4] [µM] | Ki [5] [µM] | Ki [6] [µM]
1 | – | Oc1ccc(N2CCN(Cc3cnn(-c4ccc(Cl)cc4)c3)CC2)cc1 | 0.53 | > 30 | 6.45 | 0.034 | 12.3 | 5.87 | 1.15 | 8.22
2 | Active | Clc1ccc(-n2cc(CN3CCN(c4ccccc4)CC3)cn2)cc1 | 0.38 | > 30 | 2.49 | 0.17 | 8.44 | 0.21 | 3 | 6.82
